The test system of series [1] is F. tularensis MEP synthase. Conditions: cited from earlier work.
In another series the test system is E.coli MEP synthase. The conditions noted are these: cited from earlier work.
Series [2] addresses Synechocytis sp PCC6803 MEP synthase. Conditions: cited from earlier work.
The subject of a further series is F. tularensis. Conditions: read-out: activity of fosmidomycin with F. tularensis (half maximal growth inhibition); cited from earlier work.
The next series relates to MEP synthase. Conditions: cited from earlier work.
The target in series [3] is T1, Y. pestis MEP synthase (Yersinia pestis, UniProt Q8ZH62). The series is described as follows: biochemical. The conditions noted are these: for inhibition at 100 µM: read-out: inhibition of enzymatic activity (rational library screen).
A further series deals with Y. pestis subsp. A1122. The series is described as follows: microbe, parasite or virus in culture. The conditions noted are these: for IC50: read-out: IC50 of Y. pestis growth (fractional growth, OD600). The format is cell-based, Yersinia pestis.
The target of series [4] is T1, Y. pestis MEP synthase. Conditions: for IC50: read-out: IC50 (dose-response, Figure 9).
Where [5] appears, read: Yersinia pestis, SUBSP.A1122, 24 h.
The mark [6] stands for this setting: IC50 (enzyme preincubated with inhibitor, Figure 10).

This is an account of results in PMC4149570 (PLoS ONE, 2014).

SMILES strings stand for the structures. Values joined by “and” are separate entries in the source; they are usually repeats but may differ in a detail not shown here. Equal entries are not always repeated. “Also recorded” adds a separate entry of the source. Where two headings read alike, the source gives them in different places. Bounds are passed on as bounds.

T1 sequence (Q8ZH62 whole entry, looked up): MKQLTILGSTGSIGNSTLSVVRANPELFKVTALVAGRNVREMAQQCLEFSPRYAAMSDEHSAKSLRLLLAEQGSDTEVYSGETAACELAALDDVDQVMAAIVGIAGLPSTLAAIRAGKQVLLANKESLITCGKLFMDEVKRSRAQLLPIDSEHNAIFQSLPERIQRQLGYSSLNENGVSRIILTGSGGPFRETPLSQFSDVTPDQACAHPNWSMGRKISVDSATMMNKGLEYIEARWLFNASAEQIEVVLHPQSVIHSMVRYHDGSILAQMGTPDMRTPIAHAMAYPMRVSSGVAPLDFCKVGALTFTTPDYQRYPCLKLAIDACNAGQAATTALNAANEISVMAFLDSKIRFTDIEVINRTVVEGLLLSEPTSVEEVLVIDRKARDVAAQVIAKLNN

For orientation: Ki means a dissociation constant, usually derived from enzyme kinetics or from competition with a known ligand. In the case of `O=CN(O)CCCP(=O)(O)O` [fosmidomycin], the IC50 was 0.247 µM in series [1] (read-out: IC50 fos), 0.035 µM with E.coli MEP synthase (read-out: IC50 fos), 12.1 µM in the series with F. tularensis and 0.71 µM against Y. pestis MEP synthase [3] (IC50 fos). Further, the Ki in series [1] (read-out: Ki fos) is 0.0989 ± 0.0045 µM; in the series on E.coli MEP synthase (read-out: Ki fos), 0.021 to 0.215 µM; in series [2] (read-out: Ki fos) it was 0.004 µM; on Y. pestis MEP synthase [3] it was 0.968 µM. For the same compound, in the series on MEP synthase, the “mode of inhibition with respect to the binding of NADPH” value is given as “uncompetitive”.
Take `CC1(C)S[C@@H]2[C@H](NC(=O)[C@H](N)c3ccccc3)C(=O)N2[C@H]1C(=O)O` [ampicillin, reference compound]: the IC50 in the series on Y. pestis subsp. A1122 (setting [5]) is 10.8 µM and 3.8 µg/mL.
For `O=C(c1ccc2ccccc2c1)N(O)CCCP(=O)(O)O` [compound 48], the IC50 on Y. pestis MEP synthase [4] amounted to 9.53 µM. On Y. pestis MEP synthase [3], the inhibition at 100 µM is over 75%.
Taken in the same sequence, the figures for `CC(=O)N(CCCP(=O)(O)O)OCc1ccc(-c2ccccc2)cc1` [compound 13] were 5.11 µM and over 75%.
On to `Cc1ccc(C(=O)N(O)CCCP(=O)(O)O)cc1` [compound 42], for which the IC50 at Y. pestis MEP synthase [4] came to 10.8 µM. The inhibition at 100 µM at Y. pestis MEP synthase [3] is over 75%.
Consider `C=C(C)CCO[P@@](=O)(O)OP(=O)(O)O` [IPP, isopentenyl pyrophosphate], for which, on Y. pestis MEP synthase [4], the “inhibition of Y. pestis MEP synthase (feedback inhibition test)” value was “No enzyme inhibition was observed”.
Turning to `C/C(=C\COP(=O)(O)OP(=O)(O)O)CO` [compound 16], the “growth inhibitory activity towards Y. pestis liquid culture” value in the series on Y. pestis subsp. A1122 is “comparable to FR900098; also recorded: relatively poor inhibitory activity”. For the same compound, on Y. pestis MEP synthase [4], the “improvement of IC50 on preincubation with inhibitor” value is recorded as about 12 fold, the “mode of inhibition with respect to DXP” value was “competitive” and the “mode of inhibition with respect to NADPH” value was “competitive”. The IC50 against Y. pestis MEP synthase [3] (IC50 (dose-response, Figure 9)) turned out to be 4.15 µM. In addition, on Y. pestis MEP synthase [3] (setting [6]), the IC50 was 0.335 µM. Also, the inhibition at 100 µM at Y. pestis MEP synthase [3] was over 75%.
Consider `C[C@@]1(CO)OP(=O)(O)OP(=O)(O)OC[C@H]1O` [compound 15], for which the “growth inhibitory activity towards Y. pestis liquid culture” value in the series with Y. pestis subsp. A1122 is on record as “comparable to FR900098; also recorded: relatively poor inhibitory activity”. Further, the “improvement of IC50 on preincubation with inhibitor” value on Y. pestis MEP synthase [4] was “approximately 3 fold”. Besides, the IC50 turned out to be 4.11 µM on Y. pestis MEP synthase [3] (IC50 (dose-response, Figure 9)) and 1.19 µM against Y. pestis MEP synthase [3] (setting [6]). The inhibition at 100 µM at Y. pestis MEP synthase [3] is over 75%.
Consider `CC(=O)N(O)CCCP(=O)(O)O` [FR900098, reference compound], for which the IC50 in the series with Y. pestis subsp. A1122 (setting [5]) is 29 µM and 6.4 µg/mL; with Y. pestis subsp. A1122, 29.3 µM; in series [1] (read-out: IC50 FR900098) it was 0.23 µM; in the series with E.coli MEP synthase (read-out: IC50 FR900098), 0.035 µM; against Y. pestis MEP synthase [3] (IC50 FR900098), 0.231 µM. Further, at Y. pestis MEP synthase [4], the “mode of inhibition with respect to DXP” value was “competitive”. For the same compound, the “mode of inhibition with respect to NADPH” value on Y. pestis MEP synthase [4] was “uncompetitive”. Further, the results for the Ki (in series [2] (read-out: Ki FR900098); on Y. pestis MEP synthase [3]) were 0.002 µM and 0.17 ± 0.0071 µM, respectively. The “mode of inhibition relative to DXP” value with MEP synthase is given as “competitive”. For the same compound, the “mode of inhibition with respect to the binding of NADPH” value in the series with MEP synthase was “uncompetitive”.
As for `CC(=O)N(CCCP(=O)(OCOC(=O)C(C)(C)C)OCOC(=O)C(C)(C)C)OCc1ccc(C(C)C)cc1` [compound 52], in the series on Y. pestis subsp. A1122, the “growth inhibitory activity towards Y. pestis liquid culture” value is given as “comparable to FR900098; also recorded: relatively poor inhibitory activity”.
On to `CC(C)=CCC/C(C)=C/COP(=O)(O)OP(=O)(O)O` [GPP, geranyl pyrophosphate], for which the “inhibition of Y. pestis MEP synthase (feedback inhibition test)” value on Y. pestis MEP synthase [4] was “No enzyme inhibition was observed”.
On the same count and under the same terms, for `CC(C)=CCOP(=O)(O)OP(=O)(O)O` [DMAPP, dimethylallyl pyrophosphate] the value was “No enzyme inhibition was observed”.
For `CCOP(=O)(CCCN(OCc1ccc(C(C)C)cc1)C(C)=O)OCC` [compound 51], the “growth inhibitory activity towards Y. pestis liquid culture” value with Y. pestis subsp. A1122 is “comparable to FR900098; also recorded: relatively poor inhibitory activity”.
